Assay results from ChEMBL document CHEMBL1201862, “PubChem BioAssay data set” (2004).
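Results reflect a 48-hour exposure of cells in 96-well plates to compound at five concentrations. Here, GI50 denotes the concentration required for 50% inhibition of growth.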 Active and inactive are the calls of the source. Rule as the data show it: active = GI50 up to about 1.1 µM and inactive = higher. Residues, ends and D or L forms follow the SMILES beside them. *: point of attachment. OBn = c1ccc(CO*)cc1

How the values were obtained:
Experiment in all cases: DTP human tumour cell line panel, 48 h
HT-29 = tested on: HT-29
SK-MEL-28 = tested on: SK-MEL-28
TK-10 = tested on: TK-10
SNB-75 = tested on: SNB-75
OVCAR-8 = tested on: OVCAR-8
COLO 205 = tested on: COLO 205
NCI-H226 = tested on: NCI-H226
BT-549 = tested on: BT-549
IGROV-1 = tested on: IGROV-1
SK-OV-3 = tested on: SK-OV-3
SK-MEL-2 = tested on: SK-MEL-2
MDA-N = tested on: MDA-N
MDA-MB-435 = tested on: MDA-MB-435
SF-295 = tested on: SF-295
U-251 = tested on: U-251
OVCAR-5 = tested on: OVCAR-5
HOP-62 = tested on: HOP-62
SK-MEL-5 = tested on: SK-MEL-5
NCI-H522 = tested on: NCI-H522

Row | Compound | GI50 (HT-29) | GI50 (SK-MEL-28) | GI50 (TK-10) | GI50 (SNB-75) | GI50 (OVCAR-8) | GI50 (COLO 205) | GI50 (NCI-H226) | GI50 (BT-549) | GI50 (IGROV-1) | GI50 (SK-OV-3) | GI50 (SK-MEL-2) | GI50 (MDA-N) | GI50 (MDA-MB-435) | GI50 (SF-295) | GI50 (U-251) | GI50 (OVCAR-5) | GI50 (HOP-62) | GI50 (SK-MEL-5) | GI50 (NCI-H522)
1 | O=C1c2c(ccc3c2CCCC3)CC1Cc1ccc2c(c1)CCCC2 (stereo not given) | 17.1 µM (inactive) | > 100 µM (inactive) | > 100 µM (inactive) | 4.68 µM (inactive) | 88.3 µM (inactive) | 30.8 µM (inactive) | > 100 µM (inactive) | > 100 µM (inactive) | > 100 µM (inactive) | > 100 µM (inactive) | 47.3 µM (inactive) | 39 µM (inactive) | 34 µM (inactive) | 33.8 µM (inactive) | 67 µM (inactive) | > 100 µM (inactive) | 87.7 µM (inactive) | 22.6 µM (inactive) | –
2 | COc1ccc(NC2=CC(=O)C(=O)c3ccccc32)nn1 | 1.64 µM (inactive) | 1.08 µM (active) | 3.56 µM (inactive) | – | 1.67 µM (inactive) | 1.73 µM (inactive) | 2.31 µM (inactive) | 0.743 µM (active) | 1.69 µM (inactive) | 2.17 µM (inactive) | 1.95 µM (inactive) | 0.262 µM (active) | 0.197 µM (active) | 0.822 µM (active) | 1.52 µM (inactive) | 1.92 µM (inactive) | – | 0.643 µM (active) | 0.492 µM (active)
3 | O=C(O)c1ccc(C(c2c(O)oc3ccccc3c2=O)c2c(O)oc3ccccc3c2=O)cc1 | > 100 µM (inactive) | 15.2 µM (inactive) | – | – | > 100 µM (inactive) | 40.9 µM (inactive) | – | > 100 µM (inactive) | – | > 100 µM (inactive) | > 100 µM (inactive) | > 100 µM (inactive) | > 100 µM (inactive) | > 100 µM (inactive) | > 100 µM (inactive) | 86.3 µM (inactive) | 43 µM (inactive) | > 100 µM (inactive) | –
4 | O=C(CN1CCCC1)Nc1ccc2c(c1)C1Oc3ccccc3CC1CO2 (stereo not given) | > 10 µM (inactive) | – | 49 µM (inactive) | – | 97.5 µM (inactive) | 14 µM (inactive) | > 100 µM (inactive) | 19.4 µM (inactive) | 36.6 µM (inactive) | > 100 µM (inactive) | 23.9 µM (inactive) | 31.2 µM (inactive) | 22.2 µM (inactive) | 20.5 µM (inactive) | 21.2 µM (inactive) | 30.9 µM (inactive) | 19.7 µM (inactive) | 14.6 µM (inactive) | 32.4 µM (inactive)
5 | Brc1ccc(C2(N3CCCCC3)CCCCC2)s1 | 23.5 µM (inactive) | – | 37.5 µM (inactive) | – | – | – | – | 30.5 µM (inactive) | 22.2 µM (inactive) | 45.2 µM (inactive) | 19 µM (inactive) | 79.8 µM (inactive) | 23.9 µM (inactive) | 35.6 µM (inactive) | 33.1 µM (inactive) | 67 µM (inactive) | 57.5 µM (inactive) | 0.561 µM (active) | 27.3 µM (inactive)
6 | COC(=O)CCC12CCC(O1)c1ccccc12 (stereo not given) | > 100 µM (inactive) | > 100 µM (inactive) | > 100 µM (inactive) | > 100 µM (inactive) | > 100 µM (inactive) | > 100 µM (inactive) | > 100 µM (inactive) | > 100 µM (inactive) | > 100 µM (inactive) | > 100 µM (inactive) | – | > 100 µM (inactive) | > 100 µM (inactive) | > 100 µM (inactive) | > 100 µM (inactive) | > 100 µM (inactive) | > 100 µM (inactive) | > 100 µM (inactive) | > 100 µM (inactive)
7 | O=S1(=O)NN=C(NCc2ccc(F)cc2)c2ccccc21 | > 63.1 µM (inactive) | > 100 µM (inactive) | – | – | > 94.2 µM (inactive) | > 76.4 µM (inactive) | > 100 µM (inactive) | 67.5 µM (inactive) | > 72.4 µM (inactive) | 50.6 µM (inactive) | > 100 µM (inactive) | > 100 µM (inactive) | > 100 µM (inactive) | > 71.9 µM (inactive) | 33 µM (inactive) | > 100 µM (inactive) | 39.6 µM (inactive) | > 68.2 µM (inactive) | –
8 | NC(CCC(=O)OCc1ccccc1)C(=O)NC(CCC(=O)OCc1ccccc1)C(=O)O (stereo not given) (H-Glu(OBn)-Glu(OBn)-OH; configuration not given here) | > 100 µM (inactive) | > 100 µM (inactive) | > 100 µM (inactive) | > 100 µM (inactive) | > 100 µM (inactive) | > 100 µM (inactive) | > 100 µM (inactive) | > 100 µM (inactive) | > 100 µM (inactive) | > 100 µM (inactive) | – | > 100 µM (inactive) | > 100 µM (inactive) | > 100 µM (inactive) | > 100 µM (inactive) | > 100 µM (inactive) | > 100 µM (inactive) | > 100 µM (inactive) | > 100 µM (inactive)
9 | O=C(NCCCc1cn[nH]c(=O)n1)c1cccc2nc3ccccc3nc12 | > 100 µM (inactive) | > 100 µM (inactive) | 36.5 µM (inactive) | – | 61.9 µM (inactive) | > 100 µM (inactive) | > 100 µM (inactive) | > 100 µM (inactive) | > 100 µM (inactive) | > 100 µM (inactive) | > 100 µM (inactive) | > 100 µM (inactive) | > 100 µM (inactive) | 31.7 µM (inactive) | 36.5 µM (inactive) | > 100 µM (inactive) | 47.8 µM (inactive) | > 100 µM (inactive) | –
10 | O=[N+]([O-])/C=C/c1cn(CCCCCn2cc(/C=C/[N+](=O)[O-])c3ccccc32)c2ccccc12 | 1.56 µM (inactive) | 1.12 µM (active) | 1.82 µM (inactive) | – | 3.27 µM (inactive) | 4.3 µM (inactive) | 0.805 µM (active) | 1.28 µM (inactive) | 2.23 µM (inactive) | 23.2 µM (inactive) | 13.5 µM (inactive) | 0.322 µM (active) | 0.953 µM (active) | 9.89 µM (inactive) | 1.61 µM (inactive) | 9.55 µM (inactive) | 3.93 µM (inactive) | 1.75 µM (inactive) | 10.4 µM (inactive)
11 | CC(C)(/C=N\O)NO | > 10 µM (inactive) | – | > 10 µM (inactive) | – | > 10 µM (inactive) | > 10 µM (inactive) | > 10 µM (inactive) | > 10 µM (inactive) | – | – | > 10 µM (inactive) | > 10 µM (inactive) | > 10 µM (inactive) | > 10 µM (inactive) | > 10 µM (inactive) | > 10 µM (inactive) | > 10 µM (inactive) | – | > 10 µM (inactive)
12 | CCOC(=O)c1c(NC(=S)Nc2ccc(C)cc2)sc2c1CCN(C)C2 | > 100 µM (inactive) | – | > 100 µM (inactive) | < 0.01 µM (active) | > 100 µM (inactive) | > 100 µM (inactive) | > 100 µM (inactive) | > 100 µM (inactive) | > 100 µM (inactive) | – | > 100 µM (inactive) | > 100 µM (inactive) | – | > 100 µM (inactive) | – | > 100 µM (inactive) | > 100 µM (inactive) | > 100 µM (inactive) | –
